Measurements: EP0465323A1, “Pyrimidin derivatives, angiotensin II receptor antagonists, their process of preparation and pharmaceutical compositions containing them” (LABORATOIRES UPSA, priority 1990, dated 1992)

System: récepteurs surrénaliens de l'angiotensine II
Experiment: Displacement of radioligand [125I]-SIAII specifically bound to rat adrenal angiotensin II receptors
Format: binding
Details: rat adrenal homogenate, 60 min at 25°C
From the text: L'affinité des produits des exemples pour les récepteurs de l'angiotensine Il est évaluée par technique de déplacement d'un radioligand spécifiquement fixé sur les récepteurs surrénaliens de l'angiotensine II, chez le rat.
Une aliquote d'un homogénat de surrénales de rat incube en présence d'une concentration unique de [^125| ] - SIAII (Sar^1, Tyr^4, lle^8- angiotensine II), antagoniste des récepteurs de l'angiotensine II, et de deux concentrations d'agents compétiteurs (10^-5 M, 10-^7 M), durant 60 min à 25°C.
La réaction est achevée par ajout de tampon, puis rapide filtration à travers des filtres de papier de verre. La liaison non spécifique est déterminée en présence d'angiotensine II.
Les résultats sont exprimés, pour les concentrations testées, en pourcentage de déplacement du radioligand spécifiquement fixé sur les récepteurs surrénaliens de l'angiotensine II.

| Compound | % de déplacement du ligand marqué (competitor 1E-5M, 10 µM) [%] | % de déplacement du ligand marqué (competitor 1E-7M, 0.1 µM) [%] |
| --- | --- | --- |
| CCCc1nc(C)n(CC(=O)OCC)c(=O)c1Cc1ccc(NC(=O)c2ccccc2S(=O)(=O)O)cc1 [Exemple 13] | 96 | 64 |
| CCCc1nc(C)n(CC(=O)O)c(=O)c1Cc1ccc(NC(=O)c2c(Cl)ccc(Cl)c2C(=O)O)cc1 [Exemple 14, Acide [n-propyl-4 méthyl-2 oxo-6 [(carboxy-2 dichloro-3,6-phényl)carbonylamino-4 phénylméthyl]-5 pyrimidine-yl-1 (6H)-] acétique] | 81 | 38 |
| CCCc1nc(C)nc(OCCO)c1Cc1ccc(-c2ccccc2C(=O)O)cc1 [Exemple 16, Acide [n-propyl-6 méthyl-2 hydroxy éthyloxy-4 pyrimidine-yl-5] méthyl-4' biphényl-2 carboxylique] | 65 | 31 |
| CCCc1nc(C)nc(SCC(=O)OCC)c1Cc1ccc(NC(=O)c2ccccc2S(=O)(=O)O)cc1 [Exemple 24, Acide [[n-Propyl-6 méthyl-2 (éthoxycarbonyl méthyl mercapto)-4 pyrimidine-yl-5]méthylphényl-yl-4] amino carbonyl-2 benzène sulfonique] | 93 | 62 |
| CCCc1nc(C)nc(OC(=O)N(C)C)c1Cc1ccc(NC(=O)c2ccccc2S(=O)(=O)O)cc1 [Exemple 27, Acide [[n-propyl-6 méthyl-2 (N,N-diméthyl amino carbonyloxy)-4 pyrimidine-yl-5]méthylphényl-yl-4] amino carbonyl-2 benzène sulfonique] | 76 | 20 |
| CCCc1nc(C)nc(OC)c1Cc1ccc(-c2ccccc2-c2nn[nH]n2)cc1 [Exemple 31, n-Propyl-6 méthy1-2 méthoxy-4 [(tétrazol-yl-5)-2' biphényl-yl-4] méthyl-5 pyrimidine] | 71 | 51 |
| CCCc1nc(C)n(CC(=O)OCC)c(=O)c1Cc1ccc(-c2ccccc2-c2nn[nH]n2)cc1 [Exemple 32, [n-Propyl-4 méthyl-2 oxo-6 [(tétrazol-yl-5)-2' biphényl-yl-4]méthyl-5 pyrimidine-yl-1 (6H)-] acétate d'éthyle] | 94 | 67 |
| CCCc1nc(C)nc(SCC(=O)OCC)c1Cc1ccc(-c2ccccc2-c2nn[nH]n2)cc1 [Exemple 33, [n-Propyl-6 méthyl-2 [(tétrazol-yl-5)-2' biphényl-yl-4]méthyl-5 pyrimidine-yl-4] mercapto acétate d'éthyle] | 69 | 62 |
| CCCc1nc(C)nc(SCCO)c1Cc1ccc(NC(=O)c2ccccc2S(=O)(=O)O)cc1 [Exemple 54, Acide [(n-Propyl-6 méthyl-2 hydroxyéthylmercapto-4 pyrimidine-yl-5)methylphenyl-yl-4] amino carbonyl-2 benzène sulfonique] | 84 | 65 |
| CCCCc1nc(C)nc(SCCO)c1Cc1ccc(NC(=O)c2ccccc2S(=O)(=O)O)cc1 [Exemple 55, Acide [(n-butyl-6 méthyl-2 hydroxyéthylmercapto-4 pyrimidine-yl-5)méthylphényl-yl-4] amino carbonyl-2 benzène sulfonique] | 86 | 60 |
| CCCc1nc(C)nc(N2CCOCC2)c1Cc1ccc(NC(=O)c2ccccc2S(=O)(=O)O)cc1 [Exemple 56, Acide [[n-Propyl-6 méthyl-2 (morpholine-yl-1)-4 pyrimidine-yl-5]méthylphényl-yl-4] amino carbonyl-2 benzène sulfonique] | 86 | 59 |
| CCCCc1nc(C)nc(N)c1Cc1ccc(NC(=O)c2ccccc2S(=O)(=O)O)cc1 [Exemple 57, Acide [(n-Butyl-6 méthyl-2 amino-4 pyrimidine-yl-5)méthylphényl-yl-4] amino carbonyl-2 benzène sulfonique] | 80 | 69 |
| CCCc1nc(C)nc(N2CCN(c3ccccc3OC)CC2)c1Cc1ccc(NC(=O)c2ccccc2S(=O)(=O)O)cc1 [Exemple 58, Acide [[n-Propyl-6 méthyl-2 ((méthoxy-2 phényl)pipérazine-yl-4)-4 pyrimidine-yl-5]méthylphényl-yl-4] amino carbonyl-2 benzène sulfonique] | 78 | 53 |
| CCCc1nc(C)nc(SC)c1Cc1ccc(NC(=O)c2ccccc2S(=O)(=O)O)cc1 [Exemple 59, Acide [[n-Propyl-6 méthyl-2 méthylthio-4 pyrimidine-yl-5]méthylphényl-yl-4] amino carbonyl-2 benzène sulfonique] | 89 | 57 |
| CCCCc1nc(C)nc(SCC(=O)OCC)c1Cc1ccc(NC(=O)c2ccccc2S(=O)(=O)O)cc1 [Exemple 61, Acide [[n-Butyl-6 Méthyl-2 (éthoxycarbonyl méthyl thio)-4 pyrimidine-yl-5]méthylphényl-yl-4] amino carbonyl-2 benzène sulfonique] | 96 | 63 |
| CCCCc1nc(-c2ccccc2)nc(SCC(=O)OCC)c1Cc1ccc(NC(=O)c2ccccc2S(=O)(=O)O)cc1 [Exemple 75, Acide [[n-butyl-6 phényl-2 (éthoxy carbonyl méthyl thio)-4 pyrimidine-yl-5]méthylphényl-yl-4] amino carbonyl-2 benzène sulfonique] | 72 | 0 |
| CCCCc1nc(C(C)C)nc(SCC(=O)OCC)c1Cc1ccc(NC(=O)c2ccccc2S(=O)(=O)O)cc1 [Exemple 76, Acide [[n-butyl-6 isopropyl-2 (éthoxy carbonyl méthyl thio)-4 pyrimidine-yl-5]méthylphényl-yl-4] amino carbonyl-2 benzène sulfonique] | 93 | 37 |
| CCCCc1nc(-c2ccccc2)nc(SCCO)c1Cc1ccc(NC(=O)c2ccccc2S(=O)(=O)O)cc1 [Exemple 77, Acide [[n-butyl-6 phényl-2 (hydroxy éthyl thio)-4 pyrimidine-yl-5]méthylphényl-yl-4] amino carbonyl-2 benzène sulfonique] | 63 | 4 |
| CCCCc1nc(C(C)C)nc(SCCO)c1Cc1ccc(NC(=O)c2ccccc2S(=O)(=O)O)cc1 [Exemple 78, Acide [[n-butyl-6 isopropyl-2 (hydroxy éthyl thio)-4 pyrimidine-yl-5]méthylphényl-yl-4] amino carbonyl-2 benzène sulfonique] | 74 | 41 |
